Experimental data: patent publication US6358694B1, “Methods of identifying modulators of a prostaglandin receptor” (Merck Frosst Canada & Co., priority 1993, dated 2002)

Legend:
cloned human FP receptor = target: T1, cloned human FP receptor (Homo sapiens, UniProt P43088); assay: [3H]PGF2α competition binding assay with membranes of pcDNAIamp-hFP transfected COS-M6 cells; conditions: for rank order of potency for competition of [3H]PGF2α specific binding: transfected COS-M6 membranes, 0.03 nM-10 μM competitor
T1 construct: A long open reading frame (1077 bp) was determined which would result in a 359 amino acid polypeptide; expressed in transfected cells; host or cells: COS-M6 cells, transient DEAE-dextran transfection with pcDNAIamp-hFP; 100,000 x g membrane fraction
Procedure: The recently cloned human prostaglandin F2a (FP) receptor was subcloned into the pcDNA lamp plasmid (Invitrogen) and transfected into COS-M6 cells using the DEAE-dextran method. The cells were maintained in culture for 72 h, then harvested and membranes prepared by differential centrifugation (1000×g for 10 min, then 100,000×g for 30 min) following lysis of the cells by nitrogen cavitation. […] Incubations were conducted for 1 h at room temperature prior to separation of the bound and free radioligand by rapid filtration through Whatman GF/B filters presoaked at 4° C. in washing buffer ([…] (pH 6.0) containing 0.01% bovine serum albumin).

FP receptor [1] = target: T2, FP receptor (Homo sapiens, UniProt P43088); assay: electrophysiological assay (Ca2+-dependent Cl- current) in pcDNAIamp-FP-injected Xenopus oocytes; type: cell-based; conditions: perfusion of 10 nM, oocyte voltage clamped at -60 mV
T2 construct: A long open reading frame (1077 bp) was determined which would result in a 359 amino acid polypeptide; expressed in transfected cells; host or cells: Xenopus laevis oocytes (stage 5-6), nuclear injection of 1-5 ng pcDNAIamp-FP plasmid
Procedure: (§1) Ooctyes were taken from adult females of Xenopus laevis using standard surgical procedure (Colman, A., 1984 In: Transcription and Translation—A Practical Approach, IRL Press). To remove follicle cells, oocytes were treated for 2-3 h with freshly made collagenase (2 mg/ml, type 2, Worthington Biochemical Corp., Freehold, N.J.) in Ca^2+-free ND96 solution (ND96 in mM: NaCl 96, KCl 2, MgCl2 1, HEPES 5, Na-pyruvate 2.5, theophylline 0.5, gentamicin […], +1.8 CaCl2, pH 7.6). Defolliculated stage 5-6 oocytes were selected and maintained in ND96 solution. Ooctye nuclei were injected with 1-5 ng of pcDNAIamp-PP and then incubated at 18° C. for 48 h before challenge with agonist. Functional activity was determined by measurement of either agonist-induced Ca^2+-dependent Cl^− current or light emission in oocytes injected with the Ca^2+-specific photoprotein aequorin (J. Blinks, Friday Harbor Photoproteins, Wash.), (Giladi and Spindel 1991 Biotechniques, 10, pp 744-747). […] Ligand-containing solution was perfused and the current response was recorded. For the luminometric assay, aequorin-loaded oocytes (100 ng/oocyte) were placed individually in cuvettes containing 0.4 ml ND96 and the light emission provoked by ligand addition was recorded using a Bio-Orbit 1251 luminometer (Fisher Sci. Ltd.).

FP receptor [2] = target: T2, FP receptor; assay: aequorin luminescence assay in pcDNAIamp-FP-injected Xenopus oocytes; type: cell-based; conditions: aequorin-loaded oocytes, compared to PGE2
Procedure: as §1

T1 sequence (P43088 whole entry): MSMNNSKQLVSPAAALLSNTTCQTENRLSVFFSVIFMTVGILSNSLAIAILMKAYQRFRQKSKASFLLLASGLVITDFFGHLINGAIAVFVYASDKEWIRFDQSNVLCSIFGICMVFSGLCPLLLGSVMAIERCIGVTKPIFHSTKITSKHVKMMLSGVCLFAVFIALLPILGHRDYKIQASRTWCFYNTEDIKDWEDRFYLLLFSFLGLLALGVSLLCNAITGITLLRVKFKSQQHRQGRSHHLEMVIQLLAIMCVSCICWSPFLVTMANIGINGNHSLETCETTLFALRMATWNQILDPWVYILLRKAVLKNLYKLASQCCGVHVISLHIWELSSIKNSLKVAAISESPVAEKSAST
T2 sequence (P43088 whole entry, the tested form may be a part): as the sequence (P43088 whole entry) above

O=C(O)CCC/C=C\C[C@@H]1[C@@H](/C=C/[C@@H](O)COc2cccc(C(F)(F)F)c2)[C@H](O)C[C@@H]1O (racemic) [fluprostenol]
IC50 (cloned human FP receptor): 3.5 nM
rank order of potency for competition of [3H]PGF2α specific binding (cloned human FP receptor): PGF2α=fluprostenol>PGD2>>PGE2≈U46619>iloprost
agonist-induced Ca2+-dependent Cl- current response (FP receptor [1]): prominent current responses
agonist potency from dose-response of aequorin light emission (FP receptor [2]): more potent agonists

CCCCC[C@H](O)/C=C/[C@H]1C(=O)C[C@H](O)[C@@H]1C/C=C\CCCC(=O)O [PGD2]
rank order of potency for competition of [3H]PGF2α specific binding (cloned human FP receptor): PGF2α=fluprostenol>PGD2>>PGE2≈U46619>iloprost

CCCCC[C@H](O)/C=C/[C@H]1[C@H](O)CC(=O)[C@@H]1C/C=C\CCCC(=O)O [PGE2]
rank order of potency for competition of [3H]PGF2α specific binding (cloned human FP receptor): PGF2α=fluprostenol>PGD2>>PGE2≈U46619>iloprost

CCCCC[C@H](O)/C=C/[C@@H]1[C@@H](C/C=C\CCCC(=O)O)[C@H]2CO[C@@H]1C2 [U46619]
rank order of potency for competition of [3H]PGF2α specific binding (cloned human FP receptor): PGF2α=fluprostenol>PGD2>>PGE2≈U46619>iloprost

CC#CCC(C)[C@H](O)/C=C/[C@@H]1[C@H]2C/C(=C/CCCC(=O)O)C[C@H]2C[C@H]1O (some centres unmarked) [iloprost]
rank order of potency for competition of [3H]PGF2α specific binding (cloned human FP receptor): PGF2α=fluprostenol>PGD2>>PGE2≈U46619>iloprost
